In patent US8975259B2, “Compositions and methods for inhibiting G protein signaling” (University of Rochester, priority 2007, dated 2015):
pIC50: −log10 of the molar value. “And” between values parts separate entries of the source, which are not always exact repeats. Equal values may be shown once. “Also recorded” adds a separate entry of the source.

Tests used:
Gβ1γ2 = Gβ1γ2 (UniProt P54311+P63212); design: made in house; host or cells: Sf9 insect cells (baculovirus; co-expressed with BirA and (His)6-Gαi1, from which βγ was eluted); details: Table 20, competition ELISA for SIGK binding; data from Bonacci et al. (2006); cited from earlier work
PLCβ3-bGβ1γ2 interaction = target: T1, PLCβ3-bGβ1γ2 interaction (UniProt P54311+P63212); assay: PLCβ3 binding to biotinylated Gβ1γ2 (avidin agarose precipitation); details: M119 10 μM, M201 1 μM; result in words
T1 construct: made in house; host or cells: bGβ1γ2: Sf9 insect cells
Experimental: Purified PLCβ2 (0.25 ng) was assayed in the presence (▴) or absence (▪) of 100 nM purified Gβ1γ2. […] Assays contained 10 ng of purified p101/p110 PI3Kγ heterodimer with or without 100 nM purified Gβ1γ2. Left panel: (▴) 100 nM Gβ1γ2 or (▪) no βγ. […] M119 or M201 and 25 nM purified GRK2 were added simultaneously to 250 nM biotinylated Gβ1γ2 (bGβ1γ2) immobilized on streptavidin agarose. GRK2 was detected with antibody to GRK2. Data are representative (mean ±SEM, except D) repeated at least three times each. […] 30 nM bGβ1γ2 was incubated with either 30 nM PLCβ2 or PLCβ3 in the presence or absence of M119 or M201 for 16 h at 4° C. before precipitation with avidin agarose and detection with PLCβ2,or Gβ antibodies. […] Same as 4E with PLCβ3.

[1] = system: fMLP-dependent Ca2+ release in differentiated HL60 cells; assay: fMLP-dependent Ca2+ release in fura-2 loaded DMSO-differentiated HL60 cells; format: cell-based, human; details: 10 μM compound, 250 nM fMLP, result in words
Experimental: Cells were pretreated with DMSO or 10 μM compounds for 5 min prior to stimulation with 250 nM fMLP. […] Normalized peak Ca^2+ responses were pooled from three independent experiments each (mean±SEM). Cells were pretreated with DMSO (▪) or compounds (▴) for 5 min prior to stimulation. FIG. 5C is the same as A except 10 μM M201 was tested. […] Differentiated HL60 cells were treated with 10 μM compound prior to stimulation with 250 nM fMLP. Translocation of endogenous GRK2 was determined by Western blotting with a GRK2 antibody and quantitative chemiluminescence. Data are mean±SEM from 5 experiments, * P<0.05, **P<0.01 ANOVA. […] Differentiated HL60 cells stably over-expressing GFP-PHAkt were treated with 10 μM compound prior to stimulation with 100 nM fMLP. Translocation of GFP-PHAkt to the membrane was determined by Western blotting with an anti-GFP antibody and quantitative chemiluminescence. Data are mean±SEM from 4 experiments. *** P<0.001 ANOVA. […] Differentiated HL60 cells were pretreated with 10 μM of compound prior to stimulation with 1 μM fMLP for 5 min. Levels of phosphorylated and total ERK were determined by Western blotting.
Ca^2+ fluxes were measured using two 35 mL cultures of differentiated HL-60 neutrophil cultures (0.2×10^6 cells/mL). Cells were cultured for three days with in DMSO
(1.2%), washed in HSS and resuspended in 2 mL HBSS at a concentration of 7×10^s cells/mL. Addition of DMSO to the growth medium induces differentiation of these cells into morphologically and functionally mature neutrophils
(Collins, et al. (1978) Proc. Natl. Acad. Sci. USA 75:2458; Collins, et al. (1979) J. Exp. Med. 149:969). Neutrophils were preloaded with fura-2 (1 μM), a fluorescent Ca^2+-sensitive indicator (Suh, et al. (1996) J. Biol. Chem. 271:32753), for 45 minutes, washed with HBSS and resuspended in 2 mL of indicator-free HBSS. An 140 μL aliquote of cells was added to a total of 2 mL HBSS. Fluorescence ratios were taken by dual excitation at 340 and 380 nm and emission at 510 nm. After a stable baseline was established, either DMSO or NSC119910 was added and incubated for 5 minutes. […]

[2] = system: opioid-induced antinociception in mice; assay: 55° C. warm-water tail-flick antinociception; format: in vivo, mouse
[3] = system: human μ opioid receptor (hMOR-CHO cells); assay: Total inositol phosphate assay in hMOR-CHO cells; format: cell-based; details: 10 μM; result in words
Experimental: Chinese hamster ovary (CHO) cells stably expressing either the human κ (hKOR-CHO), δ (hDOR-CHO)(L. Toll, Stanford Research Institute, Palo Alto, Calif.) or μ (hMOR-CHO)(G. Uhl, National Institute on Drug Abuse, Baltimore, Md.) opioid receptor were used in the experiments. Cells in 6-well plates were labeled by adding 4 μCi of [^3H]inositol for 24 hr in inositol-free F-10 media, without serum. After labeling, LiCl was added directly to the labeling media at a final concentration of 10 mM. Ligands or peptides were added at the same time. The final volume of each well was 1 mL. The plates were put back in to the incubator at 37° C. for 30 min after which time the medium was aspirated and the plates were washed twice with 1× PBS. Ice-cold 50 mM formic acid, 1 mL, was added to the plates which were placed in the cold room at 4° C. for 30 min. After the incubation, the contents of the plates were applied to Dowex AG1-X8 columns and allowed to flow all the way through the column. The columns were washed, twice each, with 50 and 100 mM formic acid, for a total of four washes, followed by elution of the IP-containing fraction with 3 mL of 1.2 M ammonium formate/0.1 M formic acid. The eluted fraction was mixed with Scintisafe scintillation fluid, for high salt, and counted. The data are represented as the fold increase over control in total inositol phospates. All experiments were repeated three times and performed in duplicate. Control cells for each experiment were labeled with [^3H]inositol and LiCl, in the same manner as the treatment groups.

[4] = system: carrageenan-induced paw edema in mice; assay: Carrageenan-induced paw edema and neutrophil abundance

T1 sequence (P54311 whole entry): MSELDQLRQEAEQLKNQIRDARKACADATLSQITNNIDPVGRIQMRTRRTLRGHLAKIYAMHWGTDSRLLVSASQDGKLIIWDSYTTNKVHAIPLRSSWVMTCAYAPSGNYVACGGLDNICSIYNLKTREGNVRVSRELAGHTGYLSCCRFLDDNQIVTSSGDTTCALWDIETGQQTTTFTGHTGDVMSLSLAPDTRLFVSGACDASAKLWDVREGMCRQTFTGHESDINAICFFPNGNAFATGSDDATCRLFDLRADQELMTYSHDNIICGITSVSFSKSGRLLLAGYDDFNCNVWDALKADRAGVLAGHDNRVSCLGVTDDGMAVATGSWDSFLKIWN
T1 sequence (P63212 2-68 limits assumed): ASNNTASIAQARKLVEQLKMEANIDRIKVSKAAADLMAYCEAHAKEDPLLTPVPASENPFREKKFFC
Chain of Gβ1γ2 (P54311 whole entry): as the sequence (P54311 whole entry) above
Chain of Gβ1γ2 (P63212 2-68 limits assumed): as the sequence (P63212 2-68 limits assumed) above

With `O=C(O)C1CCCCC1c1c2ccc(=O)cc-2oc2cc(O)ccc12` (centres unmarked) [Compound M119B] as the compound, how does the pIC50 (Gβ1γ2) read?
The pIC50 was less than 3.52.

With `O=C(O)C1CCCCC1c1c2ccc(=O)c(O)c-2oc2c(O)c(O)ccc12` (centres unmarked) [Compound M119, cyclohexanecarboxylic acid, 2-(4,5,6-trihydroxy-3-oxo-3H-xanthen-9-yl)-(9cl)] as the compound, how does the “effect on direct binding of bGβ1γ2 to PLCβ3” value (PLCβ3-bGβ1γ2 interaction) read?
Its value is “inhibited”.

And the “effect on fMLP-induced Ca^2+ increase” value [1]?
The value was “attenuated”.

What about the “effect on fMLP-induced Ca^2+ increase” value ([1]; listed as NSC119910) of the same compound?
Its value is “suppressed; also recorded: block”.

And the “ED50 of Deltorphin II in the presence of M119” value ([2]; M119 100 nmol i.c.v.)?
The value was 11 nmol.

And the “ED50 of DAMGO co-administered with M119” value ([2]; mouse, in vivo)?
Its value is 0.01 nmol.

And the “ED50 of DPDPE with M119” value ([2]; mouse, in vivo)?
Its value is 5.4 nmol.

What about the “ED50 of U50,488 with M119” value ([2]; mouse, in vivo) of the same compound?
The value was 17 nmol.

What about the “ED50 of morphine co-administered with the compound” value ([2]; mouse, in vivo) of the same compound?
The value was 0.065 nmol and 0.069 (0.023-0.201) nmol.

What about the “Percent Antinociception ± S.E.M.” value ([2]; mouse, in vivo) of the same compound?
Its value is 100 ± 0.0% and 79.3 ± 9.1% and 64.4 ± 10.0% and 55.3 ± 12.7%.

And the “effect of compound alone on baseline antinociception” value ([2]; mouse, in vivo)?
Its value is “no effect”.

What about the “leftward shift in the DAMGO dose-response curve” value ([2]; mouse, in vivo) of the same compound?
The value was 7 fold.

What about the “shift in the U50,488 dose-response curve” value ([2]; mouse, in vivo) of the same compound?
The value was 2 fold.

What about the “shift of morphine ED50 / increase in analgesic potency of morphine” value ([2]; mouse, in vivo) of the same compound?
The value was 11 fold.

And the “leftward shift of systemic morphine ED50” value ([2]; mouse, in vivo, 100 mg/kg)?
The value was 4 fold.

What about the “effect of compound by itself on IP production” value [3] of the same compound?
The value was “no effect by itself”.

And the “effect on DAMGO- and morphine-dependent IP production” value [3]?
The value was “significantly attenuated”.

With `O=C(O)c1ccccc1-c1c2ccc(=O)c(O)c-2oc2c(O)c(O)ccc12` (racemic) [Gallein] as the compound, how does the “reduction of number of neutrophils in the edematous fluid” value ([4]; 100 mg/kg i.p., 2 h after carrageenan) read?
The value was “approximately half”.

What about the ED50 ([4]; Mus musculus, ip, read-out: ED50 for inhibiting paw edema) of the same compound?
Its ED50 is roughly 20 mg/kg.

What about the “effect on carrageenan-induced paw edema” value ([4]; i.p. 1 h before carrageenan, gallein 100 mg/kg, indomethacin 2.5 mg/kg, result in words) of the same compound?
The value was “reduced paw edema to levels comparable with that of indomethacin”.

And the “reduction of exudate volume” value ([4]; i.p. pretreatment, 2 h after carrageenan)?
Its value is “approximately 75%”.

And the “reduction of paw swelling” value ([4]; oral gavage 30 mg/kg 1 h before carrageenan, 3 h after carrageenan)?
The value was 40%.

And the “effect on paw thickness in the absence of carrageenan” value ([4]; result in words)?
The value was “no effect”.
